Entries after “also recorded” stand apart in the source; their conditions may differ. Where a SMILES comes first, the peptide text is derived from it. The star is where a group is joined. X1 = O=C(O)CN1CCN(CC(=O)O)CCN(CC(O)Cn2cc(CCCC(=O)*)nn2)CCN(CC(=O)O)CC1; PEG2 = NCCOCCOCCC(=O)O
How the values were obtained:
[1] = test system: 4T1 metastatic tumors; experiment: MRI of breast cancer metastatic tumor model; assay type: in vivo, mouse
Procedure: In order to construct a metastatic tumor model, 0.2×10^6 4T1 tumor cells undergone 5 days of TGFβ induction were injected through left ventricle of heart, resulting in the spread of tumor cells primarily in brain, lung, liver, lymph node, adrenal gland, chest, and bone marrow. Bioluminescent images of the mice at two weeks were used to monitor the growth of tumors. To assess the targeting capacity of l-ZD2-Cy5, brain and lung were harvested from the mice three hours after 10 nmol l-ZD2-Cy5 were injected. […] Normal brain and lung harvested from normal mice injected with l-ZD2-Cy5 were used as negative controls. Examination of bigger metastatic tumors in lymph nodes and adrenal gland, as shown in FIG. 8B further backed up the targeting efficiency of l-ZD2-Cy5.
Breast cancer metastatic tumor model was imaged at two weeks in order to validate the properties of l-ZD2-Gd(HP-DO3A) in detecting breast cancer micrometastases. In FIG. 9A, a mouse developed with metastatic tumors in lymph nodes, adrenal glands, and chest was imaged in MRI after l-ZD2-Gd(HP-DO3A) injection, in conjugation with BLI validation of tumor positions.

[2] = Relaxivity measurement at 3T; assay type: physicochemical
Procedure: The design of the EDB-FN targeted MRI agent was based on a modular system that forms small molecular contrast agent in conjugation with l-ZD2. Compound 1 in FIG. 7A was prepared by adding a short PEG linker, followed by reacting with 5-hexynoic acid, resulting in an alkyne group for conjugation through click chemistry. The final product from reaction of compound 1 and 2 was purified with HPLC and characterized with Maldi-Tof spectrum.

[3] = test system: PC3 tumors
Procedure: (§1) The following imaging parameters were used for T1 mapping methods: flip angle 10°; echo time 2.09 ms; slice thickness 1 mm; number of average 1; field of view 3×3 cm^2; matrix size 128×128. For each slice, 50 images that covered 5 s of the saturation recovery curve were acquired within an interval of 100 ms. Proton density (Mn) images were acquired with repetition time (TR) of 2 s. Cartesian MRSLL images were also acquired as a validation of spiral MRSLL method. Center 64 k-space lines were acquired in Cartesian method as described previously. Other acquisition parameters were the same as spiral MRSLL.
(§2) Quantitative T1 maps of the tumors were acquired before and at 30 min after the injection of ZD2-Gd(HP-DO3A) and ProHance. […] At the end of the T1 map acquisitions, the mice were sacrificed and the Gd concentration in their tumors was measured by inductively coupled plasma optical emission spectrometry (ICP-OES).

[4] = test system: LNCaP tumors; conditions: 30 min after injection; before injection 3.21±0.12 s
Procedure: as §1, §2

[5] = Gd biodistribution (ICP-OES); conditions: 1 week after injection
Procedure: (§4) PC3 tumor-bearing athymic nude mice (sixteen mice) were randomly divided into 4 groups (four mice each group). […] The animals were sacrificed at 2 and 7 days after injection. The blood and tissue samples, including brain, femur, heart, lung, liver, muscle, spleen, and kidney, were collected and weighed. The tissue samples were then cut into small pieces and mixed with ultra-pure nitric acid (1.0 mL, 70%, EMD, Gibbstown, N.J.). The tissue samples were liquefied within 2 weeks and the solution was transferred to a centrifuge tube and centrifuged at 14,000 rpm for 15 min. The supernatant (0.2 mL) was diluted with 9.8 mL deionized water and further centrifuged at 14,000 rpm for 15 min. The Gd(III) concentration in the final supernatant was measured by ICP-OES. […] The Gd content in different organ/tissues was calculated as the percentage of injected dose per gram of organ/tissues (% Dose/g).

[6] = In vivo transmetallation and urinary excretion; set-up: species or system mouse; conditions: 0.1 mmol-Gd/kg
Procedure: Balb/c mice (Charles River Laboratories, Wilmington, Mass., USA) were randomly divided into groups of ZD2-Gd(HP-DO3A) and ProHance (n=5) and placed in the metabolism cages, 48 hours prior to injection. […] Urine samples were collected at 12 h pre-injection, and then 8, 24, 48, and 72 h post-injection from the metabolic box. The collected urine samples were centrifuged at 4,000 rpm for 15 min. The concentration of Gd(III), Zn(II), Cu(H), and Ca(II) in the supernatant of the urine samples was determined by ICP-OES after appropriate dilutions.

[7] = test system: LNCaP prostate tumor xenografts; experiment: T1-weighted MRI at 1 Tesla, LNCaP tumors (Example 3); assay type: in vivo, mouse; conditions: 0.1 mmol/kg i.v., up to 30 min
Procedure: (§3) Male athymic nude mice were purchased from Case Comprehensive Cancer Center (Cleveland, Ohio, USA) and housed in the Animal Core Facility at Case Western Reserve University. All animal experiments were performed in accordance with the animal protocol approved by the CWRU Institutional Animal Care and Use Committee. Athymic nude male mice were subcutaneously injected with 100 μL cell suspension (4×10^7 cells/mL) in matrigel matrix (Corning Bioscience, Corning, N.Y.) to initiate tumors. Mice with tumors of 5-8 mm in diameter were used for imaging studies.
MR images of tumor bearing mice were acquired on an Aspect M3 small animal MRI scanner (1 Tesla). Mice were placed on a holder with the temperature maintained at 37° C., with isoflurane/oxygen mixture supplied to the mice through a nose cone. A thin catheter filled with PBS was connected to a tail vein of the mice. After mice were placed in the coil, a pilot scan was performed to adjust mice to the proper location in the coil. […] Images were exported into DICOM data, which were then processed and analyzed using Matlab (Natick, Mass., USA). The contrast to-noise ratio of tumors in the images were calculated as the difference between tumor mean intensity minus muscle mean intensity, divided by the noise.

[8] = r1 relaxivity by T1 mapping in PC3 tumor lysates; assay type: physicochemical
[9] = test system: PC3 prostate tumor xenografts; experiment: T1-weighted MRI at 1 Tesla, PC3 tumors (Example 3); assay type: in vivo, mouse
Procedure: as §3
MR images of tumor bearing mice were acquired on an Aspect M3 small animal MRI scanner (1 Tesla). Mice were placed on a holder with the temperature maintained at 37° C., with isoflurane/oxygen mixture supplied to the mice through a nose cone. A thin catheter filled with PBS was connected to a tail vein of the mice. After mice were placed in the coil, a pilot scan was performed to adjust mice to the proper location in the coil. An axial T1 weighted sequence (TR=500 ms; TE=9 ms; Flip angle=90°; Field of view=3 cm×3 cm; Matrix size=128×128×8; slice thickness=2 mm; interslice distance=1 mm) was then used to acquire the images of the tumors before and 10 min, 20 min and 30 min after contrast injection. Images were exported into DICOM data, which were then processed and analyzed using Matlab (Natick, Mass., USA). The contrast to-noise ratio of tumors in the images were calculated as the difference between tumor mean intensity minus muscle mean intensity, divided by the noise.

[10] = test system: PC-3 human prostate cancer xenograft; experiment: MRI of PC-3 xenograft (Example 2); assay type: in vivo, mouse; conditions: 0.1 mmol-Gd/kg intravenous
Excerpt: The same contrast agent also works for prostate cancer imaging. We then tested the effectiveness of targeting EDB-FN with the contrast agent for prostate cancer MRI in male nude mice bearing primary PC-3 human prostate cancer xenograft.

[11] = In vitro complexation stability in PBS with Cu2+, Ca2+, Zn2+; assay type: physicochemical
Procedure: FIGS. 16(A-B) illustrate in vitro complexation stability and transmetallation analysis of ZD2-Gd(HP-DO3A). A) relative Gd content of ZD2-Gd(HP-DO3A) assayed during 200-min incubation of the agent in phosphate buffer saline (PBS) with and without Cu^2+, Ca^2+, or Zn^2+ ions. […] B) In vitro transmetallation analysis of MultiHance, OmniScan, ProHance (abbreviated as Pro.), and ZD2-Gd(HP-DO3A) (abbreviated as ZD2) in mouse senim.

[12] = mouse, in vivo
Procedure: as §4

Structure (SMILES): CC(C)[C@H](NC(=O)[C@@H](NC(=O)CCOCCOCCNC(=O)CCCc1cn(CC(O)CN2CCN(CC(=O)O)CCN(CC(=O)O)CCN(CC(=O)O)CC2)nn1)[C@@H](C)O)C(=O)N[C@@H](CCCNC(=N)N)C(=O)N[C@H](C(=O)N[C@@H](CO)C(=O)N[C@@H](C)C(=O)N[C@@H](CC(=O)O)C(=O)O)[C@@H](C)O (stereo partly drawn) [ZD2-Gd(HP-DO3A)] ({X1-PEG2}-TVRTSAD-OH)
- tumor enhancement in MRI ([1]; metastatic tumors at two weeks): All five tumors indicated in BLI showed enhancement in MRI
- signal enhancement in tumor by CNR measurement ([1]; tumor vs liver, kidney, bladder, muscle): significant higher signal enhancement
- relaxivities (T1 and T2) [2]: relatively high relaxivities
- tumor T1 ([3]; 30 min after injection, before injection 2.75±0.05 s): 1.81 ± 0.07 s
- change in relaxation rate (ΔR1) ([3]; among all cases (PC3/LNCaP, ZD2-Gd(HP-DO3A)/ProHance)): highest relaxation rate change
- Gd concentration in PC3 tumors by ICP-OES ([3]; mouse, in vivo): significantly higher concentration
- tumor T1 [4]: 2.54 ± 0.13 s
- tissue retention of Gd [5]: same low tissue retention as ProHance
- urine concentration of endogenous metal ions post-injection vs pre-injection [6]: without any significant increase
- dose excreted ([6]; mouse, in vivo, iv, within 24 hours post-injection, read-out: injected dose excreted in urine): > 95%
- signal enhancement in LNCaP tumors [7]: significantly lower signal enhancement; also recorded: did not produce significant contrast enhancement
- r1 relaxivity [8]: 4.12 mM⁻¹ s⁻¹
- signal enhancement in PC3 tumors ([9]; 0.1 mmol/kg i.v., up to 30 min, 1 Tesla): Strong signal enhancement
- increase of contrast-to-noise ratio (CNR) in PC3 tumors ([9]; 10 min after injection): over two-fold increase
- tumor contrast enhancement [10]: robust tumor enhancement for at least 30 min
- relative Gd content ([11]; 200-min incubation in PBS with and without Cu2+, Ca2+, or Zn2+): No decrease in Gd content
- transmetallation with endogenous metal ions ([11]; 24 hours of incubation with Cu2+, Ca2+, Zn2+ in PBS (pH=7.4)): no evident transmetallation
- Gd(III) concentration in most of the organs, including the brain, heart, and skin [12]: below the detection limit
